Measured values published in article PMC3671673, “In Vitro Morphological Assessment of Apoptosis Induced by Antiproliferative Constituents from the Rhizomes of Curcuma zedoaria” (Evidence-based Complementary and Alternative Medicine : eCAM, 2013).
Marks after values point to notes of the source that are not given here.

Columns and labels:
Format in all cases: cell-based, human
Ca Ski cells [1] = test: Morphological changes by phase contrast inverted microscope, Ca Ski; conditions: 48 h, 12.5-50 μg/mL, phase contrast 200x
Experimental: Observation of morphological changes of apoptotic cells was performed according to the method with slight modifications. Briefly, 5 × 10^5 cells were incubated for 48 hours with or without selected compounds at concentrations of 12.5, 25, 40, and 50 μg/mL in a 60 mm diameter tissue culture dishes. The medium was discarded and cells were washed once with PBS. The morphological changes of the apoptotic cells were observed using phase contrast inverted microscope (Leica DMI 3000B, Germany) at 200x magnifications.

Ca Ski cells [2] = test: Hoechst 33342/PI dual staining, quantification of apoptotic/necrotic cells, Ca Ski; conditions: 48 h
Experimental: (§1) Briefly, cells were grown on tissue culture dishes and treated with or without tested compounds at concentrations of 12.5, 25, 40, and 50 μg/mL. After 48 hours, the cells were harvested and washed with cold PBS to a density of 5 × 10^5 cells/mL. The cells were suspended in Hoechst 33342 solution (10 μg/mL) and were incubated at 37°C in CO2 for 7 minutes. After incubation with Hoechst 33342, the cells were counter stained with propidium iodide (2.5 μg/mL). The samples were maintained in the dark for 15 minutes. After staining, an aliquot of cell suspension was placed on a glass microscope slides. The slides were observed immediately under inverted fluorescence microscope (DM16000B, Germany) using UV/488 dual excitation and the fluorescence was measured at ~460 nm emission of Hoechst 33342 dye and >575 nm emission of propidium iodide at 630x magnification. At least 200 total target cells were counted and the numbers of each four cellular states were recorded and analyzed using fluorescence microscopy for quantification of apoptosis and necrosis. The experiment was conducted in triplicates. The percentages of apoptotic and necrotic cells were determined according to the following formula [27]: (1) Percentage of Apoptotic Cells (%) =(LA+DA)/ LN+LA+DN+DA×100,Percentage of Necrotic Cells (%) = DN/LN+LA+DN+DA×100, where LN are live target cells with normal nuclei (Hoechst 33342/PI: blue chromatin with organized structure), LA are live cells with apoptotic nuclei (Hoechst 33342/PI: bright blue chromatin that is highly condensed or fragmented), DN are dead cells with normal nuclei (Hoechst 33342/PI: pink chromatin with organized structure), and DA are dead cells with apoptotic nuclei (Hoechst 33342/PI: bright pink chromatin that is, highly condensed or fragmented).

MCF-7 cells = test: Hoechst 33342/PI dual staining, quantification of apoptotic/necrotic cells, MCF-7; conditions: 48 h
Experimental: as §1

HCT-116 cells = test: Hoechst 33342/PI dual staining, quantification of apoptotic/necrotic cells, HCT-116; conditions: 48 h
Experimental: as §1

Structure (SMILES)	morphological changes (in words) (Ca Ski cells [1])	Percentage of apoptotic cells (%) (Ca Ski cells [2]; 12.5 μg/mL)	Percentage of necrotic cells (%) (Ca Ski cells [2]; 12.5 μg/mL)	Percentage of apoptotic cells (%) (Ca Ski cells [2]; 25 μg/mL)	Percentage of necrotic cells (%) (Ca Ski cells [2]; 25 μg/mL)	Percentage of apoptotic cells (%) (Ca Ski cells [2]; 40 μg/mL)	Percentage of necrotic cells (%) (Ca Ski cells [2]; 40 μg/mL)	Percentage of apoptotic cells (%) (Ca Ski cells [2]; 50 μg/mL)	Percentage of necrotic cells (%) (Ca Ski cells [2]; 50 μg/mL)	Percentage of apoptotic cells (%) (MCF-7 cells; MCF-7, 12.5 μg/mL)	Percentage of necrotic cells (%) (MCF-7 cells; MCF-7, 12.5 μg/mL)	Percentage of apoptotic cells (%) (MCF-7 cells; MCF-7, 25 μg/mL)	Percentage of necrotic cells (%) (MCF-7 cells; MCF-7, 25 μg/mL)	Percentage of apoptotic cells (%) (MCF-7 cells; MCF-7, 40 μg/mL)	Percentage of necrotic cells (%) (MCF-7 cells; MCF-7, 40 μg/mL)	Percentage of apoptotic cells (%) (MCF-7 cells; MCF-7, 50 μg/mL)	Percentage of necrotic cells (%) (MCF-7 cells; MCF-7, 50 μg/mL)	Percentage of apoptotic cells (%) (HCT-116 cells; HCT-116, 12.5 μg/mL)	Percentage of necrotic cells (%) (HCT-116 cells; HCT-116, 12.5 μg/mL)	Percentage of apoptotic cells (%) (HCT-116 cells; HCT-116, 25 μg/mL)	also measured
C=C1CCC(C(C)C)=CC2C1CC[C@@]2(C)O (some centres unmarked) [Alismol, alismol]	typical apoptotic features	8.83 ± 0.58^a %	5.83 ± 1.50^a %	53.67 ± 1.76^d %	14.00 ± 3.50^b %	41.67 ± 0.76^c %	45.33 ± 0.60^c %	32.67 ± 1.04^b %	60.33 ± 1.00^d %	6.17 ± 0.58^a %	3.83 ± 0.30^a %	9.17 ± 1.5^b %	5.17 ± 1.50^b %	43.00 ± 1.0^d %	38.33 ± 1.30^c %	29.63 ± 1.1^c %	58.97 ± 1.10^d %	48.83 ± 1.61^b %	19.50 ± 1.00^a %	55.33 ± 3.01^b %	Percentage of apoptotic cells (%) (Ca Ski cells [2]; 25 μg/mL, listed as alismol): 53.7 ± 1.8%; Percentage of necrotic cells (%) (Ca Ski cells [2]; 50 μg/mL, listed as alismol): 60.3 ± 1.0%; Percentage of apoptotic cells (%) (MCF-7 cells; MCF-7, 40 μg/mL, listed as alismol): 43.0 ± 1.0%; Percentage of necrotic cells (%) (MCF-7 cells; MCF-7, 50 μg/mL, listed as alismol): 59.0 ± 1.1%; Percentage of necrotic cells (%) (HCT-116 cells; HCT-116, 25 μg/mL): 26.00 ± 1.30^b %; Percentage of apoptotic cells (%) (HCT-116 cells; HCT-116, 25 μg/mL, listed as alismol): 55.3 ± 3.0%; Percentage of apoptotic cells (%) (HCT-116 cells; HCT-116, 40 μg/mL): 21.33 ± 2.02^a %; Percentage of necrotic cells (%) (HCT-116 cells; HCT-116, 40 μg/mL): 67.67 ± 2.60^c %; Percentage of apoptotic cells (%) (HCT-116 cells; HCT-116, 50 μg/mL): 19.00 ± 0.87^a %; Percentage of necrotic cells (%) (HCT-116 cells; HCT-116, 50 μg/mL): 76.67 ± 0.80^d %; Percentage of necrotic cells (%) (HCT-116 cells; HCT-116, 50 μg/mL, listed as alismol): 76.7 ± 0.8%
C=CC1(C)Cc2occ(C)c2C(=O)C1C(=C)C (centres unmarked) [Curzerenone, curzerenone]	typical apoptotic features	4.82 ± 0.59^a %	3.50 ± 1.30^a %	7.89 ± 1.77^b %	5.57 ± 1.10^b %	39.67 ± 1.89^c %	11.83 ± 2.10^c %	54.67 ± 1.76^d %	16.33 ± 1.0^d %	4.83 ± 0.58^a %	2.00 ± 1.30^a %	5.83 ± 0.76^a %	3.83 ± 0.60^b %	53.00 ± 2.2^b %	5.50 ± 1.30^c %	57.33 ± 4.65^b %	17.83 ± 2.60^d %	45.00 ± 0.5^a %	9.00 ± 1.50^a %	50.00 ± 0.5^b %	Percentage of apoptotic cells (%) (Ca Ski cells [2]; 50 μg/mL, listed as curzerenone): 54.7 ± 1.8%; Percentage of apoptotic cells (%) (MCF-7 cells; MCF-7, 40 μg/mL, listed as curzerenone): 53.0 ± 2.2%; Percentage of necrotic cells (%) (HCT-116 cells; HCT-116, 25 μg/mL): 15.33 ± 0.80^b %; Percentage of apoptotic cells (%) (HCT-116 cells; HCT-116, 25 μg/mL, listed as curzerenone): 50.0 ± 0.5%; Percentage of apoptotic cells (%) (HCT-116 cells; HCT-116, 40 μg/mL): 46.5 ± 1.44^a %; Percentage of necrotic cells (%) (HCT-116 cells; HCT-116, 40 μg/mL): 25.00 ± 0.50^c %; Percentage of apoptotic cells (%) (HCT-116 cells; HCT-116, 50 μg/mL): 49.17 ± 1.4^b %; Percentage of necrotic cells (%) (HCT-116 cells; HCT-116, 50 μg/mL): 28.00 ± 0.50^d %
